Test results reported in PMC5502391 (Chemical Science, 2015).

Target: avidin-bound TOPI-5 (Gallus gallus, UniProt P02701)
Assay: Displacement assay, TOPI-5–avidin complex
Type: binding
Conditions: complex 90 nM, compound 50 µM

Sequence of avidin-bound TOPI-5 (P02701 25-152): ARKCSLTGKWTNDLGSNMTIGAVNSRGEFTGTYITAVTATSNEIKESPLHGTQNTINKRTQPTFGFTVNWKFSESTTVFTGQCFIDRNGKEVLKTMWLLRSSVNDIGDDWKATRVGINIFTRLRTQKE

O=C(O)CCCC[C@@H]1SC[C@@H]2NC(=O)N[C@@H]21 [biotin]
displacement of avidin-bound TOPI-5: displacement
